The structures appear in SMILES notation. Where two headings read alike, the source gives them in different places. Numbered stars: 1 amine (or outer) side, 2 acyl side, 3 side chain; on linkers, the order of the positions; unused ones are H or OH. Square brackets hold non-standard residues; d marks the D form. Peptide text beside a SMILES is read from it. * marks the point of attachment. Malonyl(2,2-Me2,histaminyl) = CC(C)(C(=O)NCCc1cnc[nH]1)C(=O)*; hArg(Et2) = CCN=C(NCC)NCCCC[C@H](N)C(=O)O; X3 = NCCc1cccc(CCN(CC(=O)[*:2])[*:1])c1; Gly(NCH2CH2Ph) = O=C(O)CNCCc1ccccc1; PEG6 = NCCOCCOCCOCCOCCOCCOCCC(=O)O; Hyp = O=C(O)[C@@H]1C[C@@H](O)CN1; Hpg = N[C@H](C(=O)O)c1ccc(O)cc1; NMeN = CN[C@@H](CC(N)=O)C(=O)O; X5 = COCCOCCOCCOCCOCCOCCC(=O)*; Aoc(2) = CCCCCC[C@H](N)C(=O)O; NMeL = CN[C@@H](CC(C)C)C(=O)O; Ahp(2) = CCCCC[C@H](N)C(=O)O; Phg = N[C@H](C(=O)O)c1ccccc1; Nle = CCCC[C@H](N)C(=O)O

Assay [1] has as its target T1, human orexin type 2 receptor (hOX2R) (Homo sapiens, UniProt O43614).
T1 construct: expressed in transfected cells
T1 sequence (O43614 1-444): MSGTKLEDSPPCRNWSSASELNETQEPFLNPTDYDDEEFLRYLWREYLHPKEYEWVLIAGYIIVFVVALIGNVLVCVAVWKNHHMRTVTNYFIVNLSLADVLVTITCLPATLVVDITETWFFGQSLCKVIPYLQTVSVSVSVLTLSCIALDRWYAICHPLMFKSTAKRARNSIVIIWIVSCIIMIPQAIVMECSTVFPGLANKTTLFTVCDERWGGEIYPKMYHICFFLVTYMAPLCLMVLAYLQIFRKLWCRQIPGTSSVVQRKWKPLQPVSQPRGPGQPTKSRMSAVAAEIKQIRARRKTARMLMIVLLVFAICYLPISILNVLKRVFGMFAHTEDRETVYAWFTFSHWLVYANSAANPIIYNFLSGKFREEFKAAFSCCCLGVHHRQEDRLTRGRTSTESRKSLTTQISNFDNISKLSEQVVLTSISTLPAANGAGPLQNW
Nature of the assay: Measurement of orexin type 2 receptor agonist activity (FLIPR TETRA intracellular Ca2+ fluorescence). It counts as cell-based. As to the method: (§1) Stable cell line generation. Obtainment of cells stably expressing either human orexin type 2 or human orexin type 1 receptor: to obtain a stable cell line the Orexin receptor cDNA was inserted into pcDNA3.1(+) plasmid vector and clones identified by G418 drug resistance selection. […] A single clone for OX2R—CHO and OX1R—CHO were grown in bulk and frozen to generate a cell bank for routine screening.
(§2) Measurement of orexin type 2 receptor agonist activity. Chinese hamster ovary (CHO) cells expressing human orexin type 2 receptor (hOX2R) seeded in each well of 384 well black clear bottom plates (BD Flacon) at 10,000 cells per well and cultured for 24 h in an Ham's F12 (Gibco) medium containing 10% fetal calf serum (Sigma Aldrich) under the conditions of 37° C., 5% CO2. After removal of the medium, 50 μL of assay buffer 1 (0.1% bovine serum albumin (Sigma Aldrich), 20 mM HEPES (Molecular Dimensions), […] probenecid (Sigma Aldrich), 1× Calcium 5 dye (Molecular Devices) in Hank's balanced salt solution (Invitrogen)) was added, and the cells were incubated for 60 min under the conditions of 37° C., 5% CO2. A test peptide was dissolved in dimethyl sulfoxide (Sigma Aldrich) to 1 mM, and then diluted with assay buffer 2 (20 mM HEPES, Hank's balanced salt solution, 0.1% bovine serum albumin). For the reaction, a test peptide solution (10 μl) was added using Fluorescent Imaging Plate Reader TETRA (FLIPR TETRA: manufactured by Molecular Devices), a fluorescence value (excitation wavelength 488 nm, measurement wavelength 570 nm) of each well was measured every one second for 2 min, and the agonist activity was determined using the area of the fluorescence value as an indicator of intracellular Ca^2+ concentration. The agonist activity of the test peptide was calculated assuming that the fluorescence value of the well added with only the dilution buffer was 0% and the fluorescence value of the well added with 10 nM human orexin A (Tocris) buffer was 100%. As used herein, Emax indicates the value at 1 μM concentration when orexin A is converted to a full agonist (maximum value of agonist activity: 100%).

In assay [2] the target is T2, human orexin type 1 receptor (hOX1R) (Homo sapiens, UniProt O43613).
T2 construct: expressed in transfected cells
T2 sequence (O43613 1-425): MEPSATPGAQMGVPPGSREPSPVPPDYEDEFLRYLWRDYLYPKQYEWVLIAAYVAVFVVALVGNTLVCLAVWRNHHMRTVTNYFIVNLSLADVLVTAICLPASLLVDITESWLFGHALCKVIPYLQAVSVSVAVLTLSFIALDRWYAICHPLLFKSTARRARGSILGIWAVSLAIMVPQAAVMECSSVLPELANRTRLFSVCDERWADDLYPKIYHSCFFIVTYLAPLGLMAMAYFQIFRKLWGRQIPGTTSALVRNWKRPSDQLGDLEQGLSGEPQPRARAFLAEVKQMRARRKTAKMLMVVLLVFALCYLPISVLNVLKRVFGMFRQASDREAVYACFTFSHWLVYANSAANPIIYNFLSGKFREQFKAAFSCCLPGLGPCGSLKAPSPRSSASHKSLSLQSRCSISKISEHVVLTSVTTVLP
The assay can be described thus: Measurement of orexin type 1 receptor agonist activity (FLIPR TETRA intracellular Ca2+ fluorescence). It counts as cell-based. As to the method: as §1
as §2, with “type 1” for “type 2”, “receptor (hOX1R) were” for “receptor (hOX2R)”

The mark [3] stands for this setting: CHO cells expressing hOX2R, agonist activity, Ca2+ fluorescence, read-out: hOX2 pEC50 (converted).
[4] abbreviates: CHO cells expressing hOX1R, agonist activity, Ca2+ fluorescence, read-out: hOX1 pEC50 (converted).

Consider `CCCCCC[C@H](NC(=O)[C@@H](NC(=O)[C@H](CC(C)C)NC(=O)[C@@H](NC(=O)CNC(=O)[C@@H](NC(=O)[C@H](C)NC(=O)[C@@H]1C[C@@H](O)CN1C(=O)[C@H](CC(N)=O)N(C)C(=O)CN(CCc1cccc(CCN)c1)C(=O)[C@@H](N)CCCNC(=N)N)c1ccccc1)[C@@H](C)CC)[C@@H](C)O)C(N)=O` [Peptide 19] (H-R[X3][NMeN][Hyp]A[Phg]GILT[Aoc(2)]-NH2), for which the figures for the EC50 in assay [1] (setting [3]) and in assay [2] (setting [4]) were less than 0.1 nM and more than 10 nM, respectively.
Turning to `CCCCCC[C@H](NC(=O)[C@@H](NC(=O)[C@H](CC(C)C)NC(=O)[C@@H](NC(=O)CNC(=O)[C@@H](NC(=O)[C@H](C)NC(=O)[C@H](Cc1c[nH]cn1)NC(=O)[C@H](CC(N)=O)NC(=O)CN(CCc1ccccc1)C(=O)[C@@H](N)CCCCN/C(=N/CC)NCC)c1ccc(O)cc1)[C@@H](C)CC)[C@@H](C)O)C(N)=O` [Peptide 20] (H-[hArg(Et2)][Gly(NCH2CH2Ph)]NHA[Hpg]GILT[Aoc(2)]-NH2), the values for the EC50 in assay [1] (setting [3]) and in assay [2] (setting [4]) were less than 0.1 nM and more than 10 nM, respectively.
For `CCCC[C@H](NC(=O)[C@@H](NC(=O)[C@H](CC(C)C)NC(=O)[C@@H](NC(=O)CNC(=O)[C@@H](NC(=O)[C@H](C)NC(=O)[C@H](Cc1c[nH]cn1)NC(=O)[C@H](CC(N)=O)NC(=O)CN(CCc1ccccc1)C(=O)[C@H](CCCNC(=N)N)NC(=O)CCOCCOCCOCCOCCOCCOCCN)c1ccccc1)[C@@H](C)CC)[C@@H](C)O)C(N)=O` [Peptide 21] (H-[PEG6]R[Gly(NCH2CH2Ph)]NHA[Phg]GILT[Nle]-NH2), the figures for the EC50 in assay [1] (setting [3]) and in assay [2] (setting [4]) were less than 0.1 nM and more than 10 nM, respectively.
With `CCCCCC[C@H](NC(=O)[C@@H](NC(=O)[C@H](CC(C)C)NC(=O)[C@@H](NC(=O)CNC(=O)[C@@H](NC(=O)[C@H](C)NC(=O)[C@@H]1C[C@@H](O)CN1C(=O)[C@H](CC(N)=O)NC(=O)CN(CCc1ccccc1)C(=O)[C@H](CCCNC(=N)N)NC(=O)CCOCCOCCOCCOCCOCCOC)c1ccccc1)[C@@H](C)CC)[C@@H](C)O)C(N)=O` [Peptide 22] (X5-R[Gly(NCH2CH2Ph)]N[Hyp]A[Phg]GILT[Aoc(2)]-NH2), the EC50 in assay [1] (setting [3]) was less than 0.1 nM; in assay [2] (setting [4]), more than 10 nM.
In the case of `CCCCCC[C@H](NC(=O)[C@@H](NC(=O)[C@H](CC(C)C)NC(=O)[C@@H](NC(=O)CNC(=O)[C@@H](NC(=O)[C@H](C)NC(=O)[C@H](CCC(N)=O)NC(=O)[C@H](CC(N)=O)NC(=O)CN(CCc1ccccc1)C(=O)[C@@H](N)CCCCN/C(=N/CC)NCC)c1ccc(O)cc1)[C@@H](C)CC)[C@@H](C)O)C(N)=O` [Peptide 23] (H-[hArg(Et2)][Gly(NCH2CH2Ph)]NQA[Hpg]GILT[Aoc(2)]-NH2), the values for the EC50 in assay [1] (setting [3]) and in assay [2] (setting [4]) were less than 0.1 nM and more than 10 nM, respectively.
Consider `CCCCCC[C@H](NC(=O)[C@@H](NC(=O)[C@H](CC(C)C)NC(=O)[C@@H](NC(=O)CNC(=O)[C@@H](NC(=O)[C@H](C)NC(=O)[C@H](Cc1c[nH]cn1)NC(=O)[C@H](CC(N)=O)NC(=O)CN(CCc1ccccc1)C(=O)[C@@H](N)CCCCNC(=NCC)NCC)c1ccccc1)[C@@H](C)CC)[C@@H](C)O)C(N)=O` [Peptide 24] (H-[hArg(Et2)][Gly(NCH2CH2Ph)]NHA[Phg]GILT[Aoc(2)]-NH2; N-terminus assumed), for which the EC50 is less than 0.1 nM in assay [1] (setting [3]) and more than 10 nM in assay [2] (setting [4]).
For `CCCCCC[C@H](NC(=O)[C@@H](NC(=O)[C@H](CC(C)C)NC(=O)[C@@H](NC(=O)CNC(=O)[C@@H](NC(=O)[C@H](C)NC(=O)[C@H](Cc1c[nH]cn1)NC(=O)[C@H](CC(N)=O)NC(=O)CN(CCc1ccccc1)C(=O)[C@H](CCCCNC(=NCC)NCC)NC(=O)C(C)(C)C(=O)NCCc1cnc[nH]1)c1ccc(O)cc1)[C@@H](C)CC)[C@@H](C)O)C(N)=O` [Peptide 25] ({Malonyl(2,2-Me2,histaminyl)}-[hArg(Et2)][Gly(NCH2CH2Ph)]NHA[Hpg]GILT[Aoc(2)]-NH2), the values for the EC50 in assay [1] and in assay [2] were less than 0.1 nM and more than 10 nM, respectively.
For the molecule `CCCCCC[C@H](NC(=O)[C@@H](NC(=O)[C@H](CC(C)C)NC(=O)[C@@H](NC(=O)CNC(=O)[C@@H](NC(=O)[C@H](C)NC(=O)[C@H](Cc1c[nH]cn1)NC(=O)[C@H](CC(N)=O)NC(=O)CN(CCc1ccccc1)C(=O)[C@H](CCCCNC(=NCC)NCC)NC(=O)[C@H](CCC(N)=O)NC(=O)C(C)(C)C(=O)NCCc1cnc[nH]1)c1ccccc1)[C@@H](C)CC)[C@@H](C)O)C(N)=O` [Peptide 26] ({Malonyl(2,2-Me2,histaminyl)}-Q[hArg(Et2)][Gly(NCH2CH2Ph)]NHA[Phg]GILT[Aoc(2)]-NH2), the results for the EC50 in assay [1] and in assay [2] were less than 0.1 nM and more than 10 nM, respectively.
Turning to `CCCCC[C@H](NC(=O)[C@@H](NC(=O)[C@H](CC(C)C)NC(=O)[C@@H](NC(=O)CNC(=O)[C@@H](NC(=O)[C@H](C)NC(=O)[C@@H]1C[C@@H](O)CN1C(=O)[C@H](CC(N)=O)NC(=O)CN(CCc1ccccc1)C(=O)[C@H](CCCNC(=N)N)NC(=O)CCOCCOCCOCCOCCOCCOCCN)c1ccccc1)[C@@H](C)CC)[C@@H](C)O)C(N)=O` [Peptide 27] (H-[PEG6]R[Gly(NCH2CH2Ph)]N[Hyp]A[Phg]GILT[Ahp(2)]-NH2), the EC50 in assay [1] (setting [3]) is less than 0.1 nM; in assay [2] (setting [4]), more than 10 nM.
The corresponding values for `CCCC[C@H](NC(=O)[C@@H](NC(=O)[C@H](CC(C)C)NC(=O)[C@@H](NC(=O)CNC(=O)[C@@H](NC(=O)[C@H](C)NC(=O)[C@@H]1C[C@@H](O)CN1C(=O)[C@H](CC(N)=O)NC(=O)CN(CCc1ccccc1)C(=O)[C@H](CCCNC(=N)N)NC(=O)CCOCCOCCOCCOCCOCCOCCN)c1ccccc1)[C@@H](C)CC)[C@@H](C)O)C(N)=O` [Peptide 28] (H-[PEG6]R[Gly(NCH2CH2Ph)]N[Hyp]A[Phg]GILT[Nle]-NH2) are less than 0.1 nM and more than 10 nM.
The matching figures for `CCCCCC[C@H](NC(=O)[C@@H](NC(=O)[C@H](CC(C)C)N(C)C(=O)[C@@H](NC(=O)CNC(=O)[C@@H](NC(=O)[C@H](C)NC(=O)[C@@H]1C[C@@H](O)CN1C(=O)[C@H](CC(N)=O)NC(=O)CN(CCc1ccccc1)C(=O)[C@H](CCCNC(=N)N)NC(=O)CCOCCOCCOCCOCCOCCOCCN)c1ccccc1)[C@@H](C)CC)[C@@H](C)O)C(N)=O` [Peptide 29] (H-[PEG6]R[Gly(NCH2CH2Ph)]N[Hyp]A[Phg]GI[NMeL]T[Aoc(2)]-NH2): less than 0.1 nM and more than 10 nM.

Source of the values: patent US20240360175A1, “PEPTIDE DERIVATIVES AND RELATED USES AS OREXIN AGONISTS” (Centessa Pharmaceuticals (UK) Limited, priority 2021, published 2024).
